This note sets out measurements from ChEMBL document CHEMBL1201862, “PubChem BioAssay data set” (2004).

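Cells were grown in 96-well plates and exposed to each compound for 48 hours at five concentrations; endpoints were interpolated linearly between bracketing concentrations, or set to the highest concentration if not reached. GI50 = concentration required for 50% inhibition of growth.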 Calls of active or inactive are those of the source. Cut-off read from the data, not from the text of the source: active = GI50 up to about 1.1 µM and inactive = higher. Bounds are passed on as bounds.

Test systems include HCT-116; LOX IMVI; OVCAR-4; SR; Hs-578T; SN12C; MDA-N; MDA-MB-231; NCI/ADR-RES; PC-3; CCRF-CEM; SNB-19; UACC-257; 786-0; NCI-H460; HT-29; HOP-62; TK-10; HL-60.
Assay in all cases: growth of human tumour cells (NCI), 48 h

With `COc1ccc(C2C(=O)c3c(OC)cc(OC)cc3OC2c2cccnc2)cc1` (stereo not given), the GI50 was > 100 µM (inactive) in the experiment with HCT-116; 61.2 µM (inactive) in the experiment on LOX IMVI; 44.2 µM (inactive) in the experiment on OVCAR-4; 37.6 µM (inactive) with SR; > 100 µM (inactive) in the experiment on Hs-578T; > 100 µM (inactive) in the experiment with SN12C. The GI50 in the experiment with MDA-N was 46.7 µM (inactive); in the experiment with MDA-MB-231, > 100 µM (inactive); in the experiment with NCI/ADR-RES, > 100 µM (inactive); in the experiment with PC-3, > 100 µM (inactive); with CCRF-CEM, 66.2 µM (inactive); with SNB-19 it was > 100 µM (inactive). The GI50 in the experiment on UACC-257 is > 100 µM (inactive); with 786-0, > 100 µM (inactive); in the experiment on NCI-H460 it was 92.7 µM (inactive); in the experiment on HT-29 it was 71.3 µM (inactive); in the experiment with HOP-62 it was > 100 µM (inactive); in the experiment on TK-10, > 100 µM (inactive).
For `CC1=C(C)C1[N+](=O)[O-]`, the GI50 in the experiment on HL-60 was 43.9 µM (inactive); in the experiment on HCT-116, > 100 µM (inactive); in the experiment with LOX IMVI it was > 100 µM (inactive); with OVCAR-4, > 100 µM (inactive); with Hs-578T it was > 100 µM (inactive); with SN12C, > 100 µM (inactive). Also, the GI50 in the experiment with MDA-N, in the experiment on MDA-MB-231, in the experiment with NCI/ADR-RES, with PC-3, in the experiment on CCRF-CEM and in the experiment with SNB-19 was > 100 µM (inactive) each time. The GI50 with UACC-257, with 786-0, in the experiment with NCI-H460, with HT-29, in the experiment on HOP-62 and in the experiment with TK-10 was > 100 µM (inactive) throughout.
Take `O=[N+]([O-])c1ccc(Cl)cc1-n1nc(-c2ccccc2)cc1-c1ccccc1`: the GI50 was > 100 µM (inactive) with HL-60; 99.8 µM (inactive) in the experiment on HCT-116; > 100 µM (inactive) with OVCAR-4; > 100 µM (inactive) with SR; 81.3 µM (inactive) in the experiment on Hs-578T; > 100 µM (inactive) with SN12C. Further, the GI50 in the experiment on MDA-N, in the experiment with MDA-MB-231, in the experiment on NCI/ADR-RES, in the experiment on PC-3, in the experiment on CCRF-CEM and in the experiment with SNB-19 was > 100 µM (inactive) each time. Moreover, the GI50 is > 100 µM (inactive) in the experiment on UACC-257; > 100 µM (inactive) in the experiment on 786-0; > 100 µM (inactive) with NCI-H460; 97.3 µM (inactive) in the experiment with HT-29; > 10 µM (inactive) in the experiment with HOP-62; > 100 µM (inactive) with TK-10.
Consider `Nc1nc2c(c(=O)[nH]1)C(c1ccccc1)CC(=O)N2` (stereo not given), for which the GI50 in the experiment with HCT-116, in the experiment with LOX IMVI, in the experiment with OVCAR-4, in the experiment with SR, in the experiment with Hs-578T and in the experiment on SN12C was > 100 µM (inactive) in each case. The GI50 with MDA-N, with MDA-MB-231, with NCI/ADR-RES, in the experiment on PC-3, with SNB-19 and in the experiment on UACC-257 was > 100 µM (inactive) in each case. Moreover, the GI50 in the experiment with 786-0, with NCI-H460, in the experiment on HT-29, in the experiment on HOP-62 and in the experiment with TK-10 was > 100 µM (inactive) throughout.
For `OC1c2ccccc2CCC1CN1CCN(CCOC(c2ccc(F)cc2)c2ccc(F)cc2)CC1` (stereo not given), the GI50 is 8.22 µM (inactive) in the experiment on HCT-116; 13.8 µM (inactive) in the experiment on LOX IMVI; 50.5 µM (inactive) in the experiment on OVCAR-4; 2.53 µM (inactive) with SR; 17.9 µM (inactive) in the experiment with Hs-578T; 13.1 µM (inactive) in the experiment on SN12C. The GI50 was 15.8 µM (inactive) with MDA-N; 13.8 µM (inactive) with MDA-MB-231; 11.2 µM (inactive) with NCI/ADR-RES; 16.3 µM (inactive) in the experiment with PC-3; 0.145 µM (active) in the experiment on CCRF-CEM; 31.6 µM (inactive) in the experiment with SNB-19. The GI50 in the experiment on UACC-257 was 14.7 µM (inactive); in the experiment with 786-0 it was 11.7 µM (inactive); in the experiment on NCI-H460, 15.4 µM (inactive); in the experiment with HOP-62, 20.5 µM (inactive); with TK-10 it was 17 µM (inactive).
Turning to `COC(NC(N)=O)C(=O)O` (stereo not given), the GI50 is 0.495 µM (active) in the experiment on HL-60; > 100 µM (inactive) in the experiment on HCT-116; > 100 µM (inactive) in the experiment with OVCAR-4; > 100 µM (inactive) in the experiment with SR; > 100 µM (inactive) in the experiment with Hs-578T; > 100 µM (inactive) with SN12C. The GI50 in the experiment on MDA-N is > 100 µM (inactive); with MDA-MB-231, > 100 µM (inactive); in the experiment on NCI/ADR-RES, > 100 µM (inactive); in the experiment with PC-3, > 100 µM (inactive); in the experiment on CCRF-CEM it was 11 µM (inactive); in the experiment with SNB-19 it was > 100 µM (inactive). Also, the GI50 in the experiment with UACC-257, in the experiment on 786-0, in the experiment on NCI-H460, in the experiment with HT-29, in the experiment on HOP-62 and with TK-10 was > 100 µM (inactive) each time.
Turning to `Clc1cc2nnn(C3CCCO3)c2cc1Cl` (stereo not given), the GI50 was > 100 µM (inactive) with HL-60; > 100 µM (inactive) in the experiment with HCT-116; 45.8 µM (inactive) in the experiment with SR; 62.7 µM (inactive) with Hs-578T; > 100 µM (inactive) with SN12C; > 100 µM (inactive) in the experiment with MDA-N. In addition, the GI50 in the experiment with MDA-MB-231, in the experiment on NCI/ADR-RES, with PC-3, in the experiment on CCRF-CEM, with UACC-257 and with 786-0 was > 100 µM (inactive) throughout. For the same molecule, the GI50 with NCI-H460, with HT-29, with HOP-62 and in the experiment on TK-10 was > 100 µM (inactive) each time.
Regarding `O=c1c(C(c2ccc(-c3ccccc3)cc2)c2c(O)oc3ccccc3c2=O)c(O)oc2ccccc12`, the GI50 was 23.2 µM (inactive) in the experiment on HL-60; 23.2 µM (inactive) in the experiment with HCT-116; 19.1 µM (inactive) with LOX IMVI; 35.1 µM (inactive) in the experiment on OVCAR-4; 24.4 µM (inactive) with Hs-578T; 16.7 µM (inactive) in the experiment on SN12C. In addition, the GI50 with MDA-N was 19.4 µM (inactive); in the experiment on MDA-MB-231, 23.3 µM (inactive); in the experiment on NCI/ADR-RES it was 21.6 µM (inactive); with PC-3, 24.2 µM (inactive); in the experiment on CCRF-CEM, 31.3 µM (inactive); with SNB-19, 30.5 µM (inactive). In addition, the GI50 in the experiment with UACC-257 was 34.4 µM (inactive); in the experiment on 786-0, 26.9 µM (inactive); with NCI-H460, 18.9 µM (inactive); in the experiment on HT-29 it was 20.3 µM (inactive); in the experiment with HOP-62, 24.1 µM (inactive); in the experiment with TK-10 it was 51.9 µM (inactive).
